The assay has as its system MV4-11 cells. Nature of the assay: Anti-apoptosis protein expression in MV4-11 cells (western blot). In kind it is cell-based, human. The note with it: 24 hours. How it is done: Anti-Apoptosis Protein Expression
MV4-11 cells were seeded on 15 cm dish and cultured overnight. The cells were treated with compound A at 0 (DMSO) or 10 nmol/L in combination with azacitidine at 0 (DMSO) or 1000 nmol/L at final concentration. The assay was performed in duplicate. After twenty-four hours, cells were harvested and lysed with lysis buffer (RIPA Buffer [Thermo Fisher Scientific], 1×Halt Phosphatase Inhibitor Cocktail [Thermo Fisher Scientific], and Protease Inhibitor Cocktail [Sigma-Aldrich]). The samples are centrifuged, and protein concentrations of supernatants were determined using the Pierce (trademark) 660 nm Protein Assay (Thermo Fisher Scientific). Aliquots of 2.0 μg protein/μL were prepared in sample buffer (10 mmol/L dithiothreitol (DTT) [Nacalai Tesque] and 1×SDS sample buffer [Wako Pure Chemical Industries, Ltd.], in lysis buffer), and then were boiled for 5 min.
The samples were separated by electrophoresis and transferred with Trans-Blot (registration symbol) Turbo transfer Pack PVDF (Bio-Rad Laboratories). After blocking with Blocking One (Nacalai Tesque) for 1 hour, each membrane was incubated with antibodies against MCL-1 (#5453, Cell Signaling Technology), BCL2L10 (#3869. Cell Signaling Technology), Survivin (#AF886, R&D Systems), cleaved PARP (#9541, Cell Signaling Technology), or Actin (A2066, Sigma-Aldrich) overnight in a cold room. After washing, the membranes were then incubated with an anti-rabbit IgG HRP-linked antibody (#7074, Cell Signaling Technology) for 1 hour at room temperature. After a final wash, signals for the each proteins were detected using a chemiluminescence reagent ECL-prime Blotting Detection Reagent (GE Healthcare) with a CCD camera (ImageQuant LAS4000. GE Healthcare).
On the technique in general: Immunoblotting shows a protein as a band on a membrane.

Data on 1 compound can be found in patent publication US20200360372A1, “COMBINATION THERAPY FOR THE TREATMENT OF ACUTE MYELOID LEUKEMIA” (ASTELLAS PHARMA INC., priority 2016, published 2020).

Consider `CCc1nc(C(N)=O)c(Nc2ccc(N3CCC(N4CCN(C)CC4)CC3)c(OC)c2)nc1NC1CCOCC1` [compound A hemifumarate, 6-ethyl-3-({3-methoxy-4-[4-(4-methylpiperazin-1-yl)piperidin-1-yl]phenyl}amino)-5-(tetrahydro-2H-pyran-4-ylamino)pyrazine-2-carboxamide hemifumarate], for which, for the setting “10 nmol/L”, the “expression of anti-apoptosis protein BCL2L10” value was “inhibits”, the “expression of anti-apoptosis protein MCL-1” value is “inhibits” and the “expression of anti-apoptosis protein survivin” value is listed as “inhibits”. Moreover, for the setting “compound A 10 nmol/L with or without azacitidine 1000 nmol/L”, the PARP cleavage entry is “increase”.
